Test results taken from paper PMC12130801, “Restoration of the Tumor Suppressor Function of Y220C-Mutant p53 by Rezatapopt, a Small-Molecule Reactivator” (Cancer Discovery, 2025).
pIC50: −log10 of the molar value.

Tests used:
p53 Y220C mutant = molecular target: T1, p53 Y220C mutant (Homo sapiens, UniProt P04637, Y220C); assay: SPR (Biacore 8K); also thermal shift and TR-FRET DNA binding
T1 construct: gene TP53; Biotinylated DBD of p53-Y220C

A-431 = assay: cells; set-up: 5-day MTT proliferation assay, absorbance 570 nm, per cent viability of untreated cells, IC50 from XLfit; settings: Homo sapiens, A-431, 120 h; 5-day MTT proliferation; read-out: PC14586 MTT IC50
Procedure: (§1) The antiproliferative activity of compounds was evaluated using the MTT (Sigma-Aldrich, Cat. # M5655-1G) assay in a 96-well plate format. Cells were seeded at an appropriate density depending on the growth rate in 96-well microtiter plates, and compounds were tested at eight concentrations with 2-fold serial dilutions. Antiproliferative activity was assessed 5 days later by the conversion of the tetrazolium dye MTT (1 mg/mL) into insoluble formazan by viable cells, which was dissolved in ethanol and measured by a microplate reader for absorbance with a wavelength of 570 nm and a reference wavelength of 650 nm. The results were presented as a percentage of the viability of untreated cells (control). The IC50 was determined from the regression of a plot of the logarithm of concentration versus percentage of viability by XLfit IDBS. The data presented thus far indicate that PC14586 is a potent and selective reactivator of p53-Y220C with strong antiproliferative effects driven by cell-cycle arrest. To further investigate the selectivity and effects on proliferation following treatment with PC14586, additional p53-Y220C, p53 hotspot mutant, and p53-WT cell lines were assessed in a 5-day 3-[4,5-dimethylthiazol-2-yl]-2,5-diphenyl tetrazolium bromide (MTT) assay. […] The less sensitive p53-Y220C cell lines, TE-8 and HCC1419, have an additional p53 mutation. In the case of TE-8, the secondary mutation, M237I, is in the DBD of p53 and has been reported to interfere with p53 DNA binding ([36]). The spectrum of sensitivity to our compounds in cell lines with additional p53 mutations may indicate that monitoring second-site mutations and patient responses could yield mechanistic insights and potential biomarkers.

BxPC-3 = assay: cells; set-up: 5-day MTT proliferation assay, absorbance 570 nm, per cent viability of untreated cells, IC50 from XLfit; settings: Homo sapiens, BXPC-3, 120 h; 5-day MTT proliferation; read-out: PC14586 MTT IC50
Procedure: as §1

C-33A = assay: cells; set-up: 5-day MTT proliferation assay, absorbance 570 nm, per cent viability of untreated cells, IC50 from XLfit; settings: Homo sapiens, C-33-A, 120 h; 5-day MTT proliferation; read-out: PC14586 MTT IC50
Procedure: as §1

EFE-184 = assay: cells; set-up: 5-day MTT proliferation assay, absorbance 570 nm, per cent viability of untreated cells, IC50 from XLfit; settings: Homo sapiens, EFE-184, 120 h; 5-day MTT proliferation; read-out: PC14586 MTT IC50
Procedure: as §1

HCC1419# = assay: cells; set-up: 5-day MTT proliferation assay, absorbance 570 nm, per cent viability of untreated cells, IC50 from XLfit; settings: Homo sapiens, HCC1419, 120 h; 5-day MTT proliferation; read-out: PC14586 MTT IC50
Procedure: as §1

HCC2935 = assay: cells; set-up: 5-day MTT proliferation assay, absorbance 570 nm, per cent viability of untreated cells, IC50 from XLfit; settings: Homo sapiens, HCC2935, 120 h; 5-day MTT proliferation; read-out: PC14586 MTT IC50
Procedure: as §1

HCT 116 = assay: cells; set-up: 5-day MTT proliferation assay, absorbance 570 nm, per cent viability of untreated cells, IC50 from XLfit; settings: Homo sapiens, HCT-116, 120 h; 5-day MTT proliferation; read-out: PC14586 MTT IC50
Procedure: as §1

HuH-7 = assay: cells; set-up: 5-day MTT proliferation assay, absorbance 570 nm, per cent viability of untreated cells, IC50 from XLfit; settings: Homo sapiens, Huh-7, 120 h; 5-day MTT proliferation; read-out: PC14586 MTT IC50
Procedure: as §1

KON = assay: cells; set-up: 5-day MTT proliferation assay, absorbance 570 nm, per cent viability of untreated cells, IC50 from XLfit; settings: 120 h; 5-day MTT proliferation; read-out: PC14586 MTT IC50
Procedure: as §1

MFE-296# = assay: cells; set-up: 5-day MTT proliferation assay, absorbance 570 nm, per cent viability of untreated cells, IC50 from XLfit; settings: Homo sapiens, MFE-296, 120 h; 5-day MTT proliferation; read-out: PC14586 MTT IC50
Procedure: as §1

NUGC-3_KO = assay: cells; set-up: 5-day MTT proliferation assay, absorbance 570 nm, per cent viability of untreated cells, IC50 from XLfit; settings: 120 h; 5-day MTT proliferation; read-out: PC14586 MTT IC50
Procedure: as §1

NUGC-3 = assay: cells; set-up: 5-day MTT proliferation assay, absorbance 570 nm, per cent viability of untreated cells, IC50 from XLfit; settings: Homo sapiens, NUGC-3, 120 h; 5-day MTT proliferation; read-out: PC14586 MTT IC50
Procedure: as §1

SF-295 = assay: cells; set-up: 5-day MTT proliferation assay, absorbance 570 nm, per cent viability of untreated cells, IC50 from XLfit; settings: Homo sapiens, SF-295, 120 h; 5-day MTT proliferation; read-out: PC14586 MTT IC50
Procedure: as §1

SJSA-1 = assay: cells; set-up: 5-day MTT proliferation assay, absorbance 570 nm, per cent viability of untreated cells, IC50 from XLfit; settings: Homo sapiens, SJSA-1, 120 h; 5-day MTT proliferation; read-out: PC14586 MTT IC50
Procedure: as §1

SNU-NCC-19 = assay: cells; set-up: 5-day MTT proliferation assay, absorbance 570 nm, per cent viability of untreated cells, IC50 from XLfit; settings: 120 h; 5-day MTT proliferation; read-out: PC14586 MTT IC50
Procedure: as §1

SU.86.86 = assay: cells; set-up: 5-day MTT proliferation assay, absorbance 570 nm, per cent viability of untreated cells, IC50 from XLfit; settings: Homo sapiens, SU.86.86, 120 h; 5-day MTT proliferation; read-out: PC14586 MTT IC50
Procedure: as §1

T3M-4 = assay: cells; set-up: 5-day MTT proliferation assay, absorbance 570 nm, per cent viability of untreated cells, IC50 from XLfit; settings: T3M4, 120 h; 5-day MTT proliferation; read-out: PC14586 MTT IC50
Procedure: as §1

TE-8# = assay: cells; set-up: 5-day MTT proliferation assay, absorbance 570 nm, per cent viability of untreated cells, IC50 from XLfit; settings: Homo sapiens, TE-8, 120 h; 5-day MTT proliferation; read-out: PC14586 MTT IC50
Procedure: as §1

TOV-112D = assay: cells; set-up: 5-day MTT proliferation assay, absorbance 570 nm, per cent viability of untreated cells, IC50 from XLfit; settings: Homo sapiens, TOV112D, 120 h; 5-day MTT proliferation; read-out: PC14586 MTT IC50
Procedure: as §1

T1 sequence (P04637 94-312 limits assumed, stated change not applied): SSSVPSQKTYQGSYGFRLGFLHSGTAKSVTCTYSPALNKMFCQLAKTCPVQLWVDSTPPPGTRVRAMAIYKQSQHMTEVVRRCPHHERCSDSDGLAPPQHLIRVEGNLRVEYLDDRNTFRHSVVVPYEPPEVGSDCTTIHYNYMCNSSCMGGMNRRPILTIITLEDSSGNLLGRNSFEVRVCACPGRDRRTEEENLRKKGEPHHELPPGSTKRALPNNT

CNC(=O)c1ccc(NCC#Cc2cc3c(N[C@@H]4CCN(C)C[C@@H]4F)cccc3n2CC(F)(F)F)c(OC)c1 [PC14586, rezatapopt]
Kd (p53 Y220C mutant): PC14374 and PC14586 both have low nmol/L SC150 and SPR Kd | pIC50 (A-431): 4.86 | pIC50 (BxPC-3): 6.48 | pIC50 (C-33A): 4.73 | pIC50 (EFE-184): 4.90 | pIC50 (HCC1419#): 5.31 | pIC50 (HCC2935): 6.40 | pIC50 (HCT 116): 4.72 | pIC50 (HuH-7): 6.31 | pIC50 (KON): 5.98 | pIC50 (MFE-296#): 6.30 | pIC50 (NUGC-3_KO): 4.81 | pIC50 (NUGC-3): 6.23 | pIC50 (SF-295): 4.95 | pIC50 (SJSA-1): < 4.70 | pIC50 (SNU-NCC-19): 6.64 | pIC50 (SU.86.86): 4.77 | pIC50 (T3M-4): 5.74 | pIC50 (TE-8#): 5.06 | pIC50 (TOV-112D): 4.89
